Source: US20260124213A1, “STAPHYLOCOCCUS AUREUS PBP4 INHIBITORS AND METHOD OF USE” (UNIVERSITY OF ROCHESTER, priority 2022, published 2026)

Legend:
[1] = tested on: HEPG2 cells; test: MTT cell viability / mammalian cytotoxicity; assay type: cell-based, human; settings: compound at 100 μM; HEPG2 cells approximately 2.5 × 10^5 cells/mL
Protocol: Eukaryotic Toxicity Testing. Two rounds of eukaryotic toxicity testing were performed. Initially hits of interest were evaluated for antifungal activity in high throughput manner. To do so, 10^5 CFU of Saccharomyces cerevisiae YSB1001 cells (10 μL) were inoculated into individual wells of a microtiter plate containing yeast peptone dextrose media (88 μL) and 50 μM of each hit (2 μL). […] More extensive mammalian cytotoxicity testing was performed on the indicated highest priority hits of interest following International Organization for Standardization guidelines. Briefly, human liver epithelial cells (HEPG2) were cultured in Dulbecco's modified Eagle medium (DMEM; Fisher Scientific®) supplemented with 10% heat inactivated fetal bovine serum (FBS; Corning Life Sciences, Corning, NY) and 1% penicillin and streptomycin. Cells were incubated at 37° C. with 5% CO2 in Nunc™ tissue culture flasks (Roskilde, Denmark) until reaching 70% confluency. Cells were removed with 0.25% trypsin (Fisher Scientific®), resuspended in fresh medium, and used to seed approximately 2.5×10^5 mL^−1 cells into individual wells of a 96 well tissue culture microplate (Nunc™) containing 200 μL of fresh medium, and incubated for 24 hours. […] Mixtures were incubated for 20-24 h at 37° C. with 5% CO2, the media was removed and replaced with 100 μL fresh media and 10 μL of 12 mM (3-(4,5-dimethylthiazol-2-yl)-2,5-diphenyltetrazolium bromide (MTT) reagent (Cyquant™ Cell Viability kit; Invitrogen™, Carlsbad, CA) was added to each well. Cells were incubated at 37° C. with 5% CO2 for 2-4 hour, 85 μL of media was removed and the remainder was mixed with 50 μL DMSO and incubated for an additional 10 minutes at 37° C. in the dark. Using a SpectraMax® M5 microplate reader, cell viability was recorded as absorbance at OD540 nm. All compounds were tested in triplicate and cell viability was expressed as a percent viability of treated cells in comparison to mock treated cells. […]

[2] = tested on: MRSA strain ATCC BAA-1556; test: Broth microdilution antibiotic potentiation; assay type: cell-based, Staphylococcus aureus; settings: ATCC BAA-1556
Protocol: (§1) Broth Microdilution Method for Antibiotic Potentiation with MRSA Strains. Bacteria were cultured for 6 hours in CAMHB and sub-cultured to 5×10^5 CFU/mL in CAMHB. Subcultures were aliquoted (4 mL) into culture tubes and then inoculated with compound from 10 mM or 100 mM stock in DMSO to the desired concentration. […]. Bacteria treated with antibiotic alone served as the control. Samples from the secondary culture tubes were then aliquoted (200 μL) into the first row of wells of a 96-well microtiter plate. Rows 2-11 were filled (100 μL) with the remaining 4 mL of bacterial subculture containing the adjuvant. Row 12 was filled (100 μL) with uninoculated media. From row 1, 100 μL was transferred to row two and mixed 5-8 times before being transferred to row 3. This procedure was used to serial dilute the rest of the rows through 10. The microtiter plate was then covered in Press 'n Seal and incubated at 37° C.

[3] = tested on: MRSA strain AH-2204; test: Broth microdilution antibiotic potentiation; assay type: cell-based, Staphylococcus aureus; settings: AH-2204
Protocol: as §1

[4] = tested on: MRSA strain AH-1263; test: Broth microdilution antibiotic potentiation; assay type: cell-based, Staphylococcus aureus; settings: AH-1263; for Ampicillin MIC / Ampicillin MIC fold reduction / Cefotaxime MIC / Oxacillin MIC: Ex. 3 compound at 60 μM (18 and 19 at 30 μM)
Protocol: as §1

[5] = target: recombinant B. subtilis PBP4 (Bacillus subtilis, UniProt P40750); test: BOCILLIN FL fluorescence polarization binding competition; settings: compound 50 μM; Ex. 3 series
Protocol: PBP4 BOCILLIN™ FL Binding Competition Assays. The ability of putative PBP4 inhibitors to impact the active site of recombinant PBP4 was assessed using two previously established BOCILLIN™-FL Penicillin (Penicillin V conjugated to BODIPY fluorescent dye) binding assays. First, fluorescence polarization assays were performed as previously described. Briefly, the indicated amount of the putative PBP4 inhibitor or control antibiotic was incubated with 1 μM recombinant B. subtilis PBP4 or S. aureus PBP2a in potassium phosphate buffer (40 mM K2HPO4 and 10 mM KH2PO4) for 1 hour in black 96-well microtiter plates (Corning Life Sciences®, Corning, NY). Following incubation, 1 μM (final concentration) BOCILLIN™ FL penicillin was added, and the mixture was incubated for 30 minutes. BOCILLIN™ FL fluorescence polarization was measured at (495nm excitation and 545nm emission) in a SpectraMax® M5 multimode plate reader (Molecular Devices®, San Jose, CA). All assays were repeated at least 8 times, averaged, and values falling outside of 2 standard deviations were considered outliers. Resulting data was plotted as percentage BOCILLIN™ FL binding inhibition=(T/U)×100; T=FL polarization of ((PBP4+BOCILLIN™ FL)−(PBP4+BOCILLIN™ FL+inhibitor compound)), U=FL polarization of ((PBP4+BOCILLIN™ FL)−(BOCILLIN™ FL)). Second, gel electrophoresis and fluorescence detection were used to measure BOCILLIN™ FL labeling of PBP4 treated with the known PBP4 inhibitor cefoxitin (positive control), kanamycin (negative control) or 9314848 (test compound). Briefly, 1 μM of recombinant PBP4 was mixed with 0, 50, 500, 2000, or 5000 μM 9314848 or control antibiotic in 50 mM phosphate buffer (pH 7.4) and incubated at 37° C. for 30 minutes. Next 40 μM of BOCILLIN™ FL was added to the reaction mixture and incubated for an additional 30 minutes at 37° C. Reactions were stopped by adding 5×SDS-PAGE gel loading dye, heated at 100° C. for 3 minutes and separated by electrophoresis in 12% SDS-PAGE (2 h, 120 Volts). BOCILLIN™ FL labeled PBP4 was imaged at λ=365 nm using a BioRad© Gel Doc EZ™ Imaging system and the gel was then subsequently stained with Bio-safe Coomassie Brilliant Blue stain (BioRad©, Hercules, CA, USA) to measure the amount of protein present in each reaction condition and analyzed using NIH-ImageJ software. The percent BOCILLIN™ FL binding was calculated by first normalizing the protein present in each reaction condition to that of untreated control and subsequently applying each reaction's protein normalization factor to each reaction's fluorescent signal. The percentage BOCILLIN™ FL binding inhibition was then calculated as the normalized band intensity of antibiotic/compound treated sample as compared to control sample (PBP4+BOCILLIN™ FL in the absence of compound).
To more directly evaluate whether 9314848 is likely to affect PBP4 function, the compound's ability to bind recombinant PBP4 was measured using BOCILLIN™ FL fluorescence polarization displacement assays. The premise for the assay is that the fluorescence polarization of the fluorescently labeled β-lactam, penicillin V (BOCILLIN™ FL), will increase upon binding to its cognate target (i.e., PBP4). Further, compounds that bind PBP4 and inhibit its function would impede BOCILLIN™ FL binding thereby allowing assessment of the protein binding affinity of 9314848 using a simple fluorescence reduction assay.

[6] = tested on: recombinant PBP4; test: BOCILLIN FL labeling of PBP4, gel electrophoresis and fluorescence detection; assay type: binding; settings: kanamycin 2000 μM or 5000 μM
Protocol: PBP4 BOCILLIN™ FL Binding Competition Assays. The ability of putative PBP4 inhibitors to impact the active site of recombinant PBP4 was assessed using two previously established BOCILLIN™-FL Penicillin (Penicillin V conjugated to BODIPY fluorescent dye) binding assays. First, fluorescence polarization assays were performed as previously described. Briefly, the indicated amount of the putative PBP4 inhibitor or control antibiotic was incubated with 1 μM recombinant B. subtilis PBP4 or S. aureus PBP2a in potassium phosphate buffer (40 mM K2HPO4 and 10 mM KH2PO4) for 1 hour in black 96-well microtiter plates (Corning Life Sciences®, Corning, NY). […] BOCILLIN™ FL fluorescence polarization was measured at (495nm excitation and 545nm emission) in a SpectraMax® M5 multimode plate reader (Molecular Devices®, San Jose, CA). […] Second, gel electrophoresis and fluorescence detection were used to measure BOCILLIN™ FL labeling of PBP4 treated with the known PBP4 inhibitor cefoxitin (positive control), kanamycin (negative control) or 9314848 (test compound). […] BOCILLIN™ FL labeled PBP4 was imaged at λ=365 nm using a BioRad© Gel Doc EZ™ Imaging system and the gel was then subsequently stained with Bio-safe Coomassie Brilliant Blue stain (BioRad©, Hercules, CA, USA) to measure the amount of protein present in each reaction condition and analyzed using NIH-ImageJ software. […]

[7] = Ex. 3 compound at 60 μM (18 and 19 at 30 μM)
[8] = Staphylococcus aureus, MRSA, read-out: Cefoxitin MIC, no compound (—)

Sequence of recombinant B. subtilis PBP4 (P40750 22-624): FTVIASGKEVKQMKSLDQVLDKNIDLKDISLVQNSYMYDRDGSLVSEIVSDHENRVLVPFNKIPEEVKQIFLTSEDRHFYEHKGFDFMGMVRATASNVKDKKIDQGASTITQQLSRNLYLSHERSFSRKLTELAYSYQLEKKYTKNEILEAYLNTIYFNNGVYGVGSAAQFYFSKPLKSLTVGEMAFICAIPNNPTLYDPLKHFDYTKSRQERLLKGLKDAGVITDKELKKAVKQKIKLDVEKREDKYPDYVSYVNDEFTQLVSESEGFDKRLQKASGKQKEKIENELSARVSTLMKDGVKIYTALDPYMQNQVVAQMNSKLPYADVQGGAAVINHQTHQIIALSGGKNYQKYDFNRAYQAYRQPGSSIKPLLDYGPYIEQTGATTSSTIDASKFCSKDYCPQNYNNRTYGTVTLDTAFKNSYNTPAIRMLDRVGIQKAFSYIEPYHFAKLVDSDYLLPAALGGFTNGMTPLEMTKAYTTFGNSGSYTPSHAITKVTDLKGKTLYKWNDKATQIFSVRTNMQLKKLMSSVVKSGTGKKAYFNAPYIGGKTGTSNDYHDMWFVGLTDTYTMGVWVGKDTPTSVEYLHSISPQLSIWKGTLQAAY

| SMILES | Toxicity with HEPG2 Cells (cell viability) [1] | Ampicillin MIC [2, 7] | Cefotaxime MIC [2, 7] | Oxacillin MIC [2, 7] | Ampicillin MIC [3, 7] | Cefotaxime MIC [3, 7] | Cefotaxime MIC fold reduction [3, 7] | Oxacillin MIC [3, 7] | Oxacillin MIC fold reduction [3, 7] | Ampicillin MIC [4] | Ampicillin MIC fold reduction [4] | Cefotaxime MIC [4] | Oxacillin MIC [4] | Percentage Bocillin Displacement (%), PBP4 binding [5] | MIC ([2]; Staphylococcus aureus, read-out: Cefoxitin MIC, no compound (—)) | MIC [3, 8] | MIC [4, 8] | Effect of preincubation on BOCILLIN FL labeling of PBP4 (gel) [6] | Cefotaxime MIC fold reduction [2, 7] | Oxacillin MIC fold reduction [2, 7] |
| --- | --- | --- | --- | --- | --- | --- | --- | --- | --- | --- | --- | --- | --- | --- | --- | --- | --- | --- | --- | --- |
| O=C(Nc1ccc2[nH]c(C3CCCCC3)nc2c1)c1ccco1 [Compound 34, N-(2-Cyclohexyl-1H-benzo[d]imidazol-5-yl)furan-2-carboxamide] | 97 ± 5.8% | 16 µg/mL | 32 µg/mL | 32 µg/mL | 2 µg/mL | 8 µg/mL | (2) | 8 µg/mL | (4) | 2 µg/mL | (8) | 32 µg/mL | 16 µg/mL | 60.3 ± 43.8% |  |  |  |  |  |  |
| CO[C@@]1(NC(=O)Cc2cccs2)C(=O)N2C(C(=O)O)=C(COC(N)=O)CS[C@@H]21 [Cefoxitin, cefoxitin] |  |  |  |  |  |  |  |  |  |  |  |  |  |  | 8 µg/mL | 2 µg/mL | 4 µg/mL | reduced the protein's ability to bind the fluorescent substrate in a dose-dependent manner |  |  |
| O=C(Nc1ccc2[nH]c(-c3cc(Cl)cc(Cl)c3)nc2c1)c1ccco1 [Compound 33, N-(2-(3,5-Dichlorophenyl)-1H-benzo[d]imidazol-5-yl)furan-2-carboxamide] | 151 ± 11.3% | 16 µg/mL | 16 µg/mL | 16 µg/mL | 2 µg/mL | 16 µg/mL |  | 4 µg/mL | (8) | 1 µg/mL | (16) | 32 µg/mL | 16 µg/mL | 56.5 ± 35.6% |  |  |  |  | (2) | (2) |
